{
  "source": "patent US12616201B2",
  "about": "“Herbicidal compositions comprising isoxaflutole” (BASF SE, priority 2024, dated 2026)",
  "key": {"[1]": {"tested_on": "Zea mays", "test": "Post-emergence application in field trials, ZEAMX", "type": "in vivo", "protocol": "(§1) In the examples below, using the method of S. R. Colby (1967) “Calculating synergistic and antagonistic responses of herbicide combinations”, Weeds 15, p. 22ff., the value E, which is expected if the activity of the individual active compounds is only additive, was calculated:\n(§2) [formula] • where • X=percent activity using active herbicide A at an application rate a; • Y=percent activity using active herbicide B (i.e. isoxaflutole) at an application rate b; • E=expected activity (in %) by A+B at application rates a+b.\n(§3) If the value found experimentally is higher than the value E calculated according to Colby, a synergistic effect is present.\n(§4) On field test sites, natural weed infestation or seeded weeds were treated post-emergence of the weeds.\n(§5) In the field trials, the weeds were treated as indicated below.\n(§6) In the following experiments, the herbicidal activity for the individual herbicidal compositions (solo and mixture applications) was assessed at the indicated days after treatment (DAT). The assessments for the damage on undesired weeds caused by the composition was carried out using a scale from 0 to 100%, compared to the untreated control plants. Here, 0 means no damage and 100 means complete destruction of the plants.\n(§7) Herbicide A-1 and isoxaflutole (240 g/l SC) were, together with addition of 0.25 v/v % MSO (methylated sed oil) as adjuvant, formulated in water as distribution medium (water volume 200 l/ha) and sprayed with commercial flat fan nozzles.\n(§8) Herbicide A-1 and isoxaflutole (240 g/l SC, Balance Flexx®) were, together with addition of 0.25 v/v % MSO (methylated sed oil) as adjuvant, formulated in water as distribution medium (water volume 200 l/ha) and sprayed with commercial flat fan nozzles.\n(§9) Herbicide A-1, isoxaflutole (240 g/l SC) and saflufenacil (342 g/l) were, together with addition of 0.25 v/v % MSO (methylated sed oil) as adjuvant, formulated in water as distribution medium (water volume 200 l/ha) and sprayed with commercial flat fan nozzles.\n(§10) Herbicide A-1, isoxaflutole (240 g/l SC), saflufenacil (342 g/l) and pyroxasulfone were, together with addition of 0.25 v/v % MSO (methylated sed oil) as adjuvant, formulated in water as distribution medium (water volume 200 l/ha) and sprayed with commercial flat fan nozzles."}, "[2]": {"tested_on": "Hordeum vulgare", "test": "Post-emergence application in field trials, HORVX", "type": "in vivo", "conditions": "HORVX growth stage 23-29", "protocol": "as §1, §2, §3, §4, §5, §6, §8"}, "[3]": {"tested_on": "Setaria verticillata", "test": "Post-emergence application in field trials, SETVE", "type": "in vivo", "conditions": "SETVE growth stage 21-23", "protocol": "as §1, §2, §3, §4, §5, §6, §7, §8"}, "[4]": {"tested_on": "Lolium multiflorum", "test": "Post-emergence application in field trials, LOLMU", "type": "in vivo", "conditions": "LOLMU height 20-25 cm, 100 g ai/ha", "protocol": "as §1, §2, §3, §4, §5, §6, §10"}, "[5]": {"tested_on": "Amaranthus hybridus", "test": "Post-emergence application in field trials, AMACH", "type": "in vivo", "conditions": "Table 1.1; AMACH growth stage 35; 21 DAT; 100 g ai/ha", "protocol": "as §1, §2, §3, §4, §5\nas §6, with “the plants. […]” for “the plants.”"}, "[6]": {"tested_on": "Echinochloa crus-galli", "test": "Post-emergence application in field trials, ECHCG", "type": "in vivo", "protocol": "as §1, §2, §3, §4, §5, §6, §7, §8, §9, §10"}, "[7]": {"tested_on": "Datura stramonium", "test": "Post-emergence application in field trials, DATST", "type": "in vivo", "conditions": "100 g ai/ha", "protocol": "as §1, §2, §3, §4, §5, §6, §7, §9"}, "[8]": {"tested_on": "HORVW", "test": "Post-emergence application in field trials, HORVW", "type": "in vivo, Hordeum vulgare", "conditions": "HORVW height 20-25 cm, 100 g ai/ha", "protocol": "as §1, §2, §3, §4, §5, §6, §10"}, "[9]": {"tested_on": "Glycine max", "test": "Post-emergence application in field trials, GLXMA", "type": "in vivo", "conditions": "GLXMA growth stage 13, 100 g ai/ha", "protocol": "as §1, §2, §3, §4, §5, §6, §7"}, "[10]": {"tested_on": "Amaranthus retroflexus", "test": "Post-emergence application in field trials, AMARE", "type": "in vivo", "protocol": "as §1, §2, §3, §4, §5, §6, §8, §10"}, "[11]": {"tested_on": "Spermacoce latifolia", "test": "Post-emergence application in field trials, BOILF", "type": "in vivo", "conditions": "Table 1.1; BOILF growth stage 40; 21 DAT; 100 g ai/ha", "protocol": "as §1, §2, §3, §4, §5, §6\nHerbicide A-1 and isoxaflutole (75% WG) were, together with addition of 0.5 v/v % MSO (methylated sed oil) as adjuvant, formulated in water as distribution medium (water volume 200 l/ha) and sprayed with commercial flat fan nozzles."}, "[12]": {"tested_on": "Abuthilon theophrasti", "test": "Post-emergence application in field trials, ABUTH", "type": "in vivo", "conditions": "ABUTH growth stage 14-16", "protocol": "as §1, §2, §3, §4, §5, §6, §8"}, "[13]": {"tested_on": "Ipomoea triloba", "test": "Post-emergence application in field trials, IPOTR", "type": "in vivo", "conditions": "Table 1.1; IPOTR growth stage 35; 21 DAT; 100 g ai/ha", "protocol": "as §1, §2, §3, §4, §5\nas §6, with “the plants. […]” for “the plants.”"}, "[14]": {"tested_on": "Euphorbia heterophylla", "test": "Post-emergence application in field trials, EPHHL", "type": "in vivo", "conditions": "Table 1.1; EPHHL growth stage 35; 21 DAT; 100 g ai/ha", "protocol": "as §1, §2, §3, §4, §5\nas §6, with “the plants. […]” for “the plants.”"}},
  "data": [
    {"smiles": "CS(=O)(=O)c1cc(C(F)(F)F)ccc1C(=O)c1cnoc1C1CC1", "note": "[B, isoxaflutole]", "values": [
      {"measurement": "% herbicidal activity", "setting": "[1]; Table 2.1, ZEAMX growth stage 15-16, 7 DAT, 100 g ai/ha", "result": 10, "unit": "%"},
      {"measurement": "% herbicidal activity", "setting": "[1]; Table 3.2, ZEAMX growth stage 15-16, 21 DAT, 56 g ai/ha", "result": 0, "unit": "%"},
      {"measurement": "% herbicidal activity", "setting": "[1]; Table 3.2, ZEAMX growth stage 15-16, 21 DAT, 80 g ai/ha", "result": 0, "unit": "%"},
      {"measurement": "% herbicidal activity", "setting": "[1]; Table 3.3, ZEAMX growth stage 15-16, 28 DAT, 56 g ai/ha", "result": 0, "unit": "%"},
      {"measurement": "% herbicidal activity", "setting": "[1]; Table 4.1, ZEAMX growth stage 15-16, height 25-30 cm, 7 DAT, 100 g ai/ha", "result": 10, "unit": "%"},
      {"measurement": "% herbicidal activity", "setting": "[1]; Table 5.12, 7 DAT, height 25-30 cm, B 100 g ai/ha", "result": 10, "unit": "%"},
      {"measurement": "% herbicidal activity", "setting": "[1]; Table 5.4, ZEAMX height 25-30 cm, 7 DAT, 100 g ai/ha", "result": 10, "unit": "%"},
      {"measurement": "% herbicidal activity", "setting": "[1]; Table 5.5, ZEAMX height 25-30 cm, 21 DAT, 100 g ai/ha", "result": 7, "unit": "%"},
      {"measurement": "% herbicidal activity", "setting": "[1]; Table 5.6, ZEAMX height 25-30 cm, 28 DAT, 100 g ai/ha", "result": 0, "unit": "%"},
      {"measurement": "% herbicidal activity", "setting": "[1]; Table 5.7, ZEAMX height 25-30 cm, 7 DAT, 100 g ai/ha", "result": 10, "unit": "%"},
      {"measurement": "% herbicidal activity", "setting": "[1]; Table 5.8, ZEAMX height 25-30 cm, 21 DAT, 100 g ai/ha", "result": 7, "unit": "%"},
      {"measurement": "% herbicidal activity", "setting": "[1]; Table 5.9, ZEAMX height 25-30 cm, 28 DAT, 100 g ai/ha", "result": 0, "unit": "%"},
      {"measurement": "% herbicidal activity", "setting": "[2]; Table 3.1, 7 DAT, 56 g ai/ha", "result": 10, "unit": "%"},
      {"measurement": "% herbicidal activity", "setting": "[2]; Table 3.1, 7 DAT, 80 g ai/ha", "result": 10, "unit": "%"},
      {"measurement": "% herbicidal activity", "setting": "[2]; Table 3.2, 21 DAT, 56 g ai/ha", "result": 10, "unit": "%"},
      {"measurement": "% herbicidal activity", "setting": "[2]; Table 3.2, 21 DAT, 80 g ai/ha", "result": 10, "unit": "%"},
      {"measurement": "% herbicidal activity", "setting": "[3]; Table 2.1, 7 DAT, 100 g ai/ha", "result": 20, "unit": "%"},
      {"measurement": "% herbicidal activity", "setting": "[3]; Table 3.4, 42 DAT, 56 g ai/ha", "result": 20, "unit": "%"},
      {"measurement": "% herbicidal activity", "setting": "[4]; Table 5.4, 7 DAT", "result": 20, "unit": "%"},
      {"measurement": "% herbicidal activity", "setting": "[4]; Table 5.8, 21 DAT", "result": 20, "unit": "%"},
      {"measurement": "% herbicidal activity", "setting": "[5]", "result": 30, "unit": "%"},
      {"measurement": "% herbicidal activity", "setting": "[6]; Table 2.1, ECHCG growth stage 23-30, 7 DAT, 100 g ai/ha", "result": 40, "unit": "%"},
      {"measurement": "% herbicidal activity", "setting": "[6]; Table 3.1, ECHCG growth stage 23-30, 7 DAT, 80 g ai/ha", "result": 70, "unit": "%"},
      {"measurement": "% herbicidal activity", "setting": "[6]; Table 3.2, ECHCG growth stage 23-30, 21 DAT, 56 g ai/ha", "result": 80, "unit": "%"},
      {"measurement": "% herbicidal activity", "setting": "[6]; Table 3.2, ECHCG growth stage 23-30, 21 DAT, 80 g ai/ha", "result": 80, "unit": "%"},
      {"measurement": "% herbicidal activity", "setting": "[6]; Table 4.1, ECHCG growth stage 23-30, height 15-20 cm, 7 DAT, 100 g ai/ha", "result": 40, "unit": "%"},
      {"measurement": "% herbicidal activity", "setting": "[6]; Table 5.4, ECHCG height 15-20 cm, 7 DAT, 100 g ai/ha", "result": 40, "unit": "%"},
      {"measurement": "% herbicidal activity", "setting": "[7]; Table 2.1, DATST growth stage 14-16, 7 DAT", "result": 25, "unit": "%"},
      {"measurement": "% herbicidal activity", "setting": "[7]; Table 2.3, DATST growth stage 14-16, 21 DAT", "result": 50, "unit": "%"},
      {"measurement": "% herbicidal activity", "setting": "[7]; Table 4.2, DATST growth stage 14-16, height 5-10 cm, 42 DAT", "result": 50, "unit": "%"},
      {"measurement": "% herbicidal activity", "setting": "[8]; Table 5.5, 21 DAT", "result": 10, "unit": "%"},
      {"measurement": "% herbicidal activity", "setting": "[8]; Table 5.6, 28 DAT", "result": 10, "unit": "%"},
      {"measurement": "% herbicidal activity", "setting": "[8]; Table 5.8, 21 DAT", "result": 10, "unit": "%"},
      {"measurement": "% herbicidal activity", "setting": "[9]; Table 2.1, 7 DAT", "result": 25, "unit": "%"},
      {"measurement": "% herbicidal activity", "setting": "[9]; Table 2.2, 21 DAT", "result": 35, "unit": "%"},
      {"measurement": "% herbicidal activity", "setting": "[9]; Table 2.3, 21 DAT", "result": 40, "unit": "%"},
      {"measurement": "% herbicidal activity", "setting": "[10]; Table 3.4, AMARE growth stage 31-49, 42 DAT, 80 g ai/ha", "result": 45, "unit": "%"},
      {"measurement": "% herbicidal activity", "setting": "[10]; Table 5.4, AMARE height 8-20 cm, 7 DAT, 100 g ai/ha", "result": 30, "unit": "%"},
      {"measurement": "% herbicidal activity", "setting": "[11]", "result": 27, "unit": "%"},
      {"measurement": "% herbicidal activity", "setting": "[12]; Table 3.1, 7 DAT, 56 g ai/ha", "result": 40, "unit": "%"},
      {"measurement": "% herbicidal activity", "setting": "[12]; Table 3.2, 21 DAT, 56 g ai/ha", "result": 45, "unit": "%"},
      {"measurement": "% herbicidal activity", "setting": "[12]; Table 3.2, 21 DAT, 80 g ai/ha", "result": 65, "unit": "%"},
      {"measurement": "% herbicidal activity", "setting": "[12]; Table 3.4, 42 DAT, 56 g ai/ha", "result": 45, "unit": "%"},
      {"measurement": "% herbicidal activity", "setting": "[12]; Table 3.4, 42 DAT, 80 g ai/ha", "result": 60, "unit": "%"},
      {"measurement": "% herbicidal activity", "setting": "[13]", "result": 19, "unit": "%"},
      {"measurement": "% herbicidal activity", "setting": "[14]", "result": 22, "unit": "%"}
    ]}
  ]
}
